Test results published in PubChem BioAssay (NCI).
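Cells were grown in 96-well plates and exposed to each compound for 48 hours at five concentrations; endpoints were interpolated linearly between bracketing concentrations, or set to the highest concentration if not reached. GI50: concentration for 50% inhibition of growth. TGI denotes the concentration required for complete inhibition of growth.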

What was measured:
Test in all cases: inhibition of tumour cell growth, NCI panel, 48 h
[1] = system: U251 CNS
[2] = system: BT-549 breast
[3] = system: SF-539 CNS
[4] = system: MDA-MB-435
[5] = system: HCT-116 colon
[6] = system: SK-OV-3 ovarian
[7] = system: K-562 leukemia
[8] = system: SN12C renal
[9] = system: HCT-15 colon
[10] = system: SF-268 CNS
[11] = system: NCI-H522 lung
[12] = system: MALME-3M melanoma
[13] = system: SW-620 colon
[14] = system: EKVX NSCLC
[15] = system: MDA-MB-231 breast
[16] = system: RPMI-8226 leukemia
[17] = system: SR leukemia
[18] = system: NCI/ADR-RES ovarian
[19] = system: NCI-H23 lung
[20] = system: M14 melanoma
[21] = system: T-47D breast
[22] = system: MOLT-4 leukemia
[23] = system: 786-0 renal
[24] = system: MCF7 breast
[25] = system: MDA-MB-468 breast
[26] = system: RXF 393 renal
[27] = system: KM12 colon
[28] = system: SK-MEL-28 melanoma
[29] = system: SNB-75 CNS
[30] = system: HOP-62 NSCLC
[31] = system: SK-MEL-5 melanoma
[32] = system: HL-60(TB) leukemia
[33] = system: UO-31 renal
[34] = system: UACC-62 melanoma
[35] = system: COLO 205 colon
[36] = system: CAKI-1 renal
[37] = system: HS 578T breast
[38] = system: OVCAR-3 ovarian
[39] = system: A549 NSCLC
[40] = system: NCI-H460 lung
[41] = system: CCRF-CEM leukemia
[42] = system: LOX IMVI melanoma
[43] = system: A498 renal
[44] = system: HT29 colon
[45] = system: TK-10 renal
[46] = system: SK-MEL-2 melanoma
[47] = system: DU-145 prostate
[48] = system: SNB-19 CNS
[49] = system: OVCAR-8 ovarian
[50] = system: SF-295 CNS
[51] = system: ACHN renal
[52] = system: NCI-H226 lung
[53] = system: OVCAR-4 ovarian
[54] = system: UACC-257 melanoma
[55] = system: OVCAR-5 ovarian
[56] = system: HOP-92 NSCLC
[57] = system: PC-3 prostate
[58] = system: HCC-2998 colon
[59] = system: IGROV1 ovarian

COc1cncc(-c2ccc3ncnc(N4CCc5ccc(Cl)cc54)c3c2)c1
GI50 [1]: 4.24 µM
TGI [1]: 24 µM
GI50 [2]: 1.78 µM
TGI [2]: 8.41 µM
GI50 [3]: 3.41 µM
TGI [3]: 14.4 µM
GI50 [4]: 4.05 µM
TGI [4]: 22.3 µM
GI50 [5]: 2.97 µM
TGI [5]: 77.7 µM
GI50 [6]: 2.81 µM
TGI [6]: 16.4 µM
GI50 [7]: 4.56 µM
TGI [7]: > 100 µM
GI50 [8]: 2.42 µM
TGI [8]: 21.3 µM
GI50 [9]: 3.04 µM
TGI [9]: 19.9 µM
GI50 [10]: 3.02 µM
TGI [10]: 26.9 µM
GI50 [11]: 2.17 µM
TGI [11]: 12.1 µM
GI50 [12]: 9.11 µM
TGI [12]: 24.2 µM
GI50 [13]: 6.17 µM
TGI [13]: 26.9 µM
GI50 [14]: 1.22 µM
TGI [14]: 11.5 µM
GI50 [15]: 3.43 µM
TGI [15]: 33.1 µM
GI50 [16]: 2.97 µM
TGI [16]: > 100 µM
GI50 [17]: 3.03 µM
TGI [17]: 25.4 µM
GI50 [18]: 2.16 µM
TGI [18]: 27.9 µM
GI50 [19]: 5.33 µM
TGI [19]: 29.6 µM
GI50 [20]: 7.6 µM
TGI [20]: 37.4 µM
GI50 [21]: 1.23 µM
TGI [21]: 10 µM
GI50 [22]: 1.96 µM
TGI [22]: 6.96 µM
GI50 [23]: 1.61 µM
TGI [23]: 15.8 µM
GI50 [24]: 1.74 µM
TGI [24]: 11.3 µM
GI50 [25]: 0.231 µM
TGI [25]: 2.26 µM
GI50 [26]: 1.28 µM
TGI [26]: 4.86 µM
GI50 [27]: 2.58 µM
TGI [27]: 16.4 µM
GI50 [28]: 7.02 µM
TGI [28]: 21.9 µM
GI50 [29]: 0.623 µM
TGI [29]: 5.25 µM
GI50 [30]: 2.19 µM
TGI [30]: 24.9 µM
GI50 [31]: 2.62 µM
TGI [31]: 12.4 µM
TGI [32]: 6.2 µM
GI50 [33]: 0.718 µM
TGI [33]: 11.8 µM
GI50 [34]: 2.49 µM
TGI [34]: 16.3 µM
GI50 [35]: 4.4 µM
TGI [35]: 23 µM
GI50 [36]: 0.885 µM
TGI [36]: 13.8 µM
GI50 [37]: 1.48 µM
TGI [37]: 6.5 µM
GI50 [38]: 2.41 µM
TGI [38]: 18.4 µM
GI50 [39]: 1.85 µM
TGI [39]: 18.4 µM
GI50 [40]: 3.65 µM
TGI [40]: 20.3 µM
GI50 [41]: 3.13 µM
TGI [41]: 54.1 µM
GI50 [42]: 3.28 µM
TGI [42]: 20.5 µM
GI50 [43]: 0.371 µM
TGI [43]: 4.02 µM
GI50 [44]: 3.11 µM
TGI [44]: 20.5 µM
GI50 [45]: 1.27 µM
TGI [45]: 9.58 µM
GI50 [46]: 4.33 µM
TGI [46]: 19.7 µM
GI50 [47]: 1.98 µM
TGI [47]: 27 µM
GI50 [48]: 3.56 µM
TGI [48]: 27 µM
GI50 [49]: 3.98 µM
TGI [49]: 55.9 µM
GI50 [50]: 3.53 µM
TGI [50]: 29.6 µM
GI50 [51]: 1.04 µM
TGI [51]: 15.5 µM
GI50 [52]: 2.04 µM
TGI [52]: 18.3 µM
GI50 [53]: 2.69 µM
TGI [53]: 22.9 µM
GI50 [54]: 9.01 µM
TGI [54]: 28.5 µM
GI50 [55]: 3.13 µM
TGI [55]: 23.7 µM
GI50 [56]: 2.24 µM
TGI [56]: 17.8 µM
GI50 [57]: 2.47 µM
TGI [57]: > 100 µM
GI50 [58]: 3.48 µM
TGI [58]: 19.8 µM

O=C(c1ccc(O)cc1)C1[C@H](c2ccc(Br)cc2)[C@@H](c2ccccc2)NC12C(=O)Nc1ccccc12 (stereo partly specified)
GI50 [1]: 6.19 µM
TGI [1]: 11.6 µM
GI50 [2]: 6.02 µM
TGI [2]: 11.4 µM
GI50 [3]: 6.41 µM
TGI [3]: 11.7 µM
GI50 [4]: 6.53 µM
TGI [4]: 12.3 µM
GI50 [5]: 5.51 µM
TGI [5]: 10.8 µM
GI50 [6]: 6.67 µM
TGI [6]: 13.3 µM
GI50 [7]: 8.24 µM
TGI [7]: 21.8 µM
GI50 [8]: 5.69 µM
TGI [8]: 10.8 µM
GI50 [9]: 6.17 µM
TGI [9]: 13 µM
GI50 [10]: 5.73 µM
TGI [10]: 12.5 µM
GI50 [11]: 5.82 µM
TGI [11]: 11.7 µM
GI50 [12]: 5.75 µM
TGI [12]: 10.9 µM
GI50 [13]: 6.63 µM
TGI [13]: 12.9 µM
GI50 [14]: 5.92 µM
TGI [14]: 14 µM
GI50 [15]: 4.93 µM
TGI [15]: 9.87 µM
GI50 [16]: 7.97 µM
TGI [16]: 25.2 µM
GI50 [17]: 5.18 µM
TGI [17]: 12.6 µM
GI50 [19]: 6.38 µM
TGI [19]: 12.6 µM
GI50 [20]: 5.63 µM
TGI [20]: 11.3 µM
GI50 [21]: 5.14 µM
TGI [21]: 12.2 µM
GI50 [22]: 3.99 µM
TGI [22]: 13.4 µM
GI50 [23]: 5.83 µM
TGI [23]: 11.2 µM
GI50 [24]: 6.41 µM
TGI [24]: 15.4 µM
GI50 [25]: 6.1 µM
TGI [25]: 12.2 µM
GI50 [26]: 5.29 µM
TGI [26]: 10.5 µM
GI50 [27]: 6.31 µM
TGI [27]: 12.6 µM
GI50 [28]: 6.21 µM
TGI [28]: 11.5 µM
GI50 [29]: 4.21 µM
TGI [29]: 11.7 µM
GI50 [30]: 5.88 µM
TGI [30]: 11.5 µM
GI50 [31]: 6.6 µM
TGI [31]: 12.1 µM
GI50 [32]: 7.46 µM
TGI [32]: 18.9 µM
GI50 [33]: 3.99 µM
TGI [33]: 8.53 µM
GI50 [34]: 5.13 µM
TGI [34]: 10.1 µM
GI50 [35]: 6.88 µM
TGI [35]: 14.1 µM
GI50 [36]: 4.67 µM
TGI [36]: 9.8 µM
GI50 [37]: 6.63 µM
TGI [37]: 15.9 µM
GI50 [38]: 6.51 µM
TGI [38]: 12 µM
GI50 [39]: 4.84 µM
TGI [39]: 10.2 µM
GI50 [40]: 6.08 µM
TGI [40]: 11.9 µM
GI50 [41]: 7.07 µM
TGI [41]: 16.1 µM
GI50 [42]: 4.93 µM
TGI [42]: 10.6 µM
GI50 [43]: 5.83 µM
TGI [43]: 11.3 µM
GI50 [59]: 5.21 µM
TGI [59]: 10.4 µM
GI50 [44]: 5.87 µM
TGI [44]: 12 µM
GI50 [45]: 5.68 µM
TGI [45]: 11.3 µM
GI50 [46]: 6.14 µM
TGI [46]: 11.5 µM
GI50 [47]: 6.85 µM
TGI [47]: 12.9 µM
GI50 [48]: 5.92 µM
TGI [48]: 11.1 µM
GI50 [49]: 6.28 µM
TGI [49]: 12.2 µM
GI50 [50]: 5.93 µM
TGI [50]: 11.3 µM
GI50 [51]: 5.69 µM
TGI [51]: 10.8 µM
GI50 [52]: 5.31 µM
TGI [52]: 11 µM
GI50 [53]: 6.21 µM
TGI [53]: 12.9 µM
GI50 [54]: 6.1 µM
TGI [54]: 11.8 µM
GI50 [55]: 5.67 µM
TGI [55]: 10.8 µM
GI50 [56]: 5.36 µM
TGI [56]: 10.9 µM
GI50 [57]: 5.09 µM
TGI [57]: 12.3 µM
GI50 [58]: 5.87 µM
TGI [58]: 11.4 µM
